According to PubChem BioAssay (NCI):
Values joined by “and” are separate entries in the source; they are usually repeats but may differ in a detail not shown here. Equal entries are not always repeated.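 Cultured in 96-well plates, cells were exposed to test compound for 48 hours across five concentrations. GI50: concentration for 50% inhibition of growth. TGI: concentration producing complete growth inhibition.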

Experiments:
Experiment in all cases: NCI-60 cell line screen, 48 h
[1] = tested on: SF-268 CNS
[2] = tested on: TK-10 renal
[3] = tested on: UACC-62 melanoma
[4] = tested on: HCT-15 colon
[5] = tested on: SW-620 colon
[6] = tested on: HT29 colon
[7] = tested on: EKVX NSCLC
[8] = tested on: MCF7 breast
[9] = tested on: DU-145 prostate
[10] = tested on: NCI/ADR-RES ovarian

Row | Structure (SMILES) | TGI [1] [µM] | TGI [2] | TGI [3] [µM] | TGI [4] | TGI [5] [µM] | TGI [6] | TGI [7] | GI50 [1] [µM] | GI50 [2] | GI50 [8] | TGI [8] | GI50 [3] [µM] | GI50 [9] [µM] | TGI [9] | GI50 [4] [µM] | GI50 [5] [µM] | GI50 [6] [µM] | GI50 [7] | TGI [10] | GI50 [10] [µM]
1 | CCCCCCCCCCC(C)CCCCCCC(=O)O (stereo unspecified) | > 100 | > 100 µM | > 100 | > 100 µM | > 100 | > 100 µM | > 100 µM | – | – | – | – | – | – | – | – | – | – | – | – | –
2 | CC(=O)N/C(=C\c1ccc(Cc2nc3c([nH]2)C(=O)c2ccccc2C3=O)cc1)c1nc2c([nH]1)C(=O)c1ccccc1C2=O | > 100 | > 100 µM | – | – | > 100 | > 100 µM | > 100 µM | – | – | – | – | – | – | – | – | – | – | – | – | –
3 | Cc1c(Cl)cccc1NC(=O)c1sc2nc3c(cc2c1N)CCCCC3 | > 50 | 45.6 µM | > 50 | > 50 µM | > 50 | 5.02 µM | > 50 µM | 0.426 | 6.66 µM | 0.105 µM | > 50 µM | 0.233 | 0.598 | 17.3 µM | 0.195 | 0.232 | 0.186 | 0.316 µM | – | –
4 | CCN(CC)CC(=N)N(CC)c1ccccc1 | > 100 | > 100 µM | > 100 | > 100 µM | > 100 | – | > 100 µM | – | – | – | – | – | – | – | – | – | – | – | – | –
5 | O=C(/C=C\c1cccc2ccccc12)c1cccc2ccccc12 | 22.1 | – | 27.8 | 19.6 µM | 10.6 | – | 27.6 µM | 4.74 | – | – | – | – | – | – | – | 2.7 | 4.47 | – | – | –
6 | O=C(NC(=O)c1ccccc1[N+](=O)[O-])Nc1ccc(Oc2ncc(Cl)cn2)c(C(F)(F)F)c1 | 38.4 | > 100 µM | > 100 | > 38.1 µM | > 11.9 | 0.167 µM | > 100 µM | – | – | – | > 52.2 µM | – | – | > 100 µM | – | – | – | – | – | –
7 | Oc1c(CN2CCN(c3ccccc3)CC2)cc(Br)c2cccnc12 | > 71 | > 100 µM | – | > 100 µM | > 100 | > 95.8 µM | > 29.3 µM | – | – | – | > 100 µM | – | – | 13.8 µM | – | – | – | – | > 100 µM | –
8 | CC(=O)[O-].O=C([CH-]C(=O)c1ccccc1)c1ccccc1.O=C([CH-]C(=O)c1ccccc1)c1ccccc1.[Sm+3] | 24.5 | 48.7 µM | 19.8 | 22.5 µM | 23.5 | 19 µM | 16.6 µM | 3.39 | 6.41 µM | – | – | 3.73 | – | – | 5.5 | 2.71 | 6.59 | 2.11 µM | – | –
9 | C/C=N\N1C(=O)c2ccccc2C1=O | > 100 | > 100 µM | > 100 | > 100 µM | > 100 | > 100 µM | > 100 µM | – | – | – | – | – | – | – | – | – | – | – | – | –
10 | NC(=S)NN=C1CSSC1 | 13.8 | 7.62 µM | 17.2 | 4.75 µM | > 100 | 8 µM | – | 3.61 | 2.73 µM | 2.85 µM | 17.6 µM | 3.21 | 4.12 | 16.2 µM | 1.7 | 8.06 | 2.31 | – | > 100 µM | 4.11
11 | CNCCN=c1ccc2c3c1c(O)c1c(O)ccc(=O)c1c3[nH]n2CCNCCO | 2.57 | 7.54 µM and 18.6 µM | 3.07 | 24.8 µM and 41.2 µM | – | 3.71 µM and 9.04 µM | 10.5 µM and 3.5 µM | – | 1.14 µM and 5.32 µM | 0.0568 µM and 0.05 µM | 7.51 µM and 5.2 µM | 0.0741 | – | 1.27 µM and 0.942 µM | 1.52 | – | 0.587 | 1.84 µM and 0.889 µM | 46.9 µM and 404 µM and 239 µM | –
12 | CC(C)=CC(=O)Cc1nc2ccc([N+](=O)[O-])cc2[nH]c1=O | > 100 | > 100 µM | > 100 | > 100 µM | > 100 | > 100 µM | > 100 µM | – | – | – | – | – | – | – | – | – | – | – | – | –
13 | CCCCCn1c(C)cc(/C=C\c2ccc3cc(C)ccc3[n+]2C)c1C | 1.41 | 0.89 µM | 1.1 | 1.9 µM | – | 1.19 µM | 2.43 µM | 0.252 | 0.157 µM | 0.199 µM | 1.04 µM | 0.243 | 0.0586 | 1.3 µM | 0.49 | – | 0.0645 | 0.275 µM | > 34.4 µM | 2.11
14 | COc1cc2c3c(n(C)c(=O)c2cc1OC)-c1cc2c(cc1/C3=C\CCNCCCN)OCO2 | 11.8 | 22.4 µM | – | 39.6 µM | – | > 100 µM | 18 µM | 2.43 | 5.29 µM | 2.77 µM | 13.4 µM | – | – | – | 16.9 | – | 1.86 | 3.83 µM | > 100 µM | > 100
15 | CC[C@H](C)C(=O)O[C@H]1C[C@H](O)C=C2C=C[C@H](C)[C@H](CC[C@@H](O)C[C@@H](O)CC(=O)O)[C@H]21 | > 100 | > 100 µM | > 100 | > 100 µM | > 100 | > 100 µM | – | > 100 | > 100 µM | > 100 µM | > 100 µM | > 100 | > 100 | > 100 µM | > 100 | > 100 | > 100 | – | > 100 µM | > 100
16 | O=C(O)/C(=C\c1ccncc1)c1cccc2ccccc12 | > 100 | > 100 µM | – | > 100 µM | > 100 | > 100 µM | > 100 µM | – | – | – | – | – | – | > 100 µM | – | – | – | – | > 100 µM | –
17 | CCc1cccc(C)c1NC(=O)CC1C(=O)Nc2ccccc2S1(=O)=O (stereo unspecified) | 39.4 | 59.4 µM | 41.1 | 33.8 µM | 29.3 | 36.4 µM | 41.9 µM | – | – | – | – | – | – | – | – | – | – | – | – | –
18 | O=C(O)c1cc2ccccc2c2c1C(=O)c1ccccc1-2 | > 100 | > 100 µM | > 100 | > 100 µM | > 100 | > 100 µM | – | – | – | – | > 100 µM | – | – | > 100 µM | – | – | – | – | > 100 µM | –
19 | CC(=O)[CH-]C(C)=O.CC(=O)[CH-]C(C)=O.CC[O-].CC[O-].[Ti+4] | > 100 | > 100 µM | > 100 | > 100 µM | > 100 | > 100 µM | – | > 100 | > 100 µM | – | – | > 100 | – | – | > 100 | > 100 | > 100 | – | – | –
20 | N.N.O=P([O-])([O-])C1(P(=O)([O-])[O-])CCCCCN1.[Pt+2] | > 100 | > 100 µM | > 100 | > 100 µM | > 100 | > 100 µM | – | 76.6 | > 100 µM | – | – | > 100 | – | – | > 100 | > 100 | > 100 | – | – | –
